Calls of active or inactive are those of the source. The calls are words filed in the database; no cut-off is given here.
Experiments:
[1] = target: T1, Estrogen receptor (Rattus norvegicus) (UniProt P06211); assay: Displacement of [3H]estradiol from estrogen receptor in uterine cytosol of estradiol primed rat relative to estradiol; settings: Uterus
T1 sequence (whole entry): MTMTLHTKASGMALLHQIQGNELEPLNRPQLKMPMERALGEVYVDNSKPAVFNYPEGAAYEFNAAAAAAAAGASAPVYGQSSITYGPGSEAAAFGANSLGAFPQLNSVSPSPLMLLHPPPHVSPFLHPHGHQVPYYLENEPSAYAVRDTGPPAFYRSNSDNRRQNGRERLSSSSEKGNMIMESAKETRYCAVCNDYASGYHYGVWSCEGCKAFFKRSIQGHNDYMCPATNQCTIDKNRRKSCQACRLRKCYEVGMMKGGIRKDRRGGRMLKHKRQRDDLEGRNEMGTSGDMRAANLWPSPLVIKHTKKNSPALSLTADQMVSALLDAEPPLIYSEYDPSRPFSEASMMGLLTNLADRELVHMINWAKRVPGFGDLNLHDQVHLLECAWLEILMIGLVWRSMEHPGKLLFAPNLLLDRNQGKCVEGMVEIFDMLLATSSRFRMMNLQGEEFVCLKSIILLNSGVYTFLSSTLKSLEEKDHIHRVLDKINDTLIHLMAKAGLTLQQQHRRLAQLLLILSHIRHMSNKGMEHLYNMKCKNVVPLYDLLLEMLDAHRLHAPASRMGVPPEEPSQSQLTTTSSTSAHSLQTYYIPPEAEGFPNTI

[2] = system: Rattus norvegicus; assay: Antiestrogenic activity in ovariectomised Sprague-Dawley rat assessed as inhibition of estradiol-induced uterine weight at 10 mg/kg, po once daily for three days measured on day 4 relative to control; type: functional
[3] = system: Rattus norvegicus; assay: Antiimplantation activity in Sprague-Dawley rat uterus at 10 mg/kg, po for 7 days measured on day 11; type: functional
[4] = system: Rattus norvegicus; assay: Estrogenic activity in ovariectomised Sprague-Dawley rat assessed as uterine weight gain at 10 mg/kg, po once daily for three days after 24 hrs of last treatment relative to control; type: functional
[5] = system: Rattus norvegicus; assay: Antiimplantation activity in Sprague-Dawley rat uterus at 5 mg/kg, po for 7 days measured on day 11; type: functional

SMILES	RBA [1] [%]	inhibition in vivo at 10 mg/kg [2] [%]	Activity [3]	Activity [4] [%]	Activity [5] [%]
c1ccc2c(c1)OCCc1c-2n(CCc2nnn(CCN3CCCCC3)n2)c2ccccc12	0.011		inactive	28	
c1ccc2c(c1)CCCc1c-2n(CCc2nnn(CCN3CCCCC3)n2)c2ccccc12	0.011		inactive		
c1ccc2c(c1)OCCc1c-2n(CCc2nnnn2CCN2CCCCC2)c2ccccc12	< 0.001	1	inactive	44	
c1ccc2c(c1)OCCc1c-2n(CCc2nnnn2CCN2CCCC2)c2ccccc12	< 0.001		inactive	40	
c1ccc2c(c1)CCCc1c-2n(CCc2nnnn2CCN2CCCCC2)c2ccccc12	< 0.001		inactive	40	
c1ccc2c(c1)CCCc1c-2n(CCc2nnnn2CCN2CCCC2)c2ccccc12	0.0125	7	67%	61	

Second part, led by results:

RBA [1] [%]	SMILES	inhibition in vivo at 10 mg/kg [2] [%]	Activity [3]	Activity [4] [%]	Activity [5] [%]
0.0125	c1ccc2c(c1)SCCc1c-2n(CCc2nnn(CCN3CCCCC3)n2)c2ccccc12	6	inactive		
< 0.001	c1ccc2c(c1)SCCc1c-2n(CCc2nnnn2CCN2CCCC2)c2ccccc12		inactive	39	
0.04	c1ccc2c(c1)OCCc1c-2n(CCc2nnn(CCN3CCCC3)n2)c2ccccc12	12	inactive	29	
0.16	c1ccc2c(c1)CCCc1c-2n(CCc2nnn(CCN3CCCC3)n2)c2ccccc12	3	100%	33	67
< 0.001	c1ccc2c(c1)SCCc1c-2n(CCc2nnn(CCN3CCCC3)n2)c2ccccc12	1	inactive	25	
< 0.001	c1ccc2c(c1)SCCc1c-2n(CCc2nnnn2CCN2CCCCC2)c2ccccc12	2	inactive	23	

— ChEMBL document CHEMBL1158177, “Synthesis and structure guided evaluation of estrogen agonist and antagonist activities of some new tetrazolyl indole derivatives” (2008)
